Results on 43 compounds are retold here after patent publication US9790169B2, “IDO inhibitors” (BRISTOL-MYERS SQUIBB COMPANY, priority 2015, dated 2017).

The assay concerns the target human IDO1 (Homo sapiens, UniProt P14902). Nature of the assay: Assessment of human IDO-1 inhibitory activity in HEK cells (human IDO1/HEK293 cells, kynurenine read-out with Ehrlich reagent, absorbance 490 nm). In kind it is cell-based. Set-up: expressed in transfected cells. Conditions: HEK Human IDO-1 cellular assay. The gist of the method:
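Kynurenine output from stably IDO1-transfected HEK293 cells (10,000/well, phenol red-free RPMI, 10% FBS) after 20 h compound exposure at 37 °C. The reaction was stopped with 0.2% TCA and heated 30 min at 50 °C, then the supernatant was mixed with Ehrlich reagent and read at 490 nm. IC50 was set against DMSO and a 500 nM reference standard as 0 and 100% inhibition.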

Broadly, the pIC50 is the negative decadic logarithm of the IC50, by convention in mol/L.

The structures appear in SMILES notation. pIC50: −log10 of the molar value.

Chain of human IDO1 (P14902 whole entry): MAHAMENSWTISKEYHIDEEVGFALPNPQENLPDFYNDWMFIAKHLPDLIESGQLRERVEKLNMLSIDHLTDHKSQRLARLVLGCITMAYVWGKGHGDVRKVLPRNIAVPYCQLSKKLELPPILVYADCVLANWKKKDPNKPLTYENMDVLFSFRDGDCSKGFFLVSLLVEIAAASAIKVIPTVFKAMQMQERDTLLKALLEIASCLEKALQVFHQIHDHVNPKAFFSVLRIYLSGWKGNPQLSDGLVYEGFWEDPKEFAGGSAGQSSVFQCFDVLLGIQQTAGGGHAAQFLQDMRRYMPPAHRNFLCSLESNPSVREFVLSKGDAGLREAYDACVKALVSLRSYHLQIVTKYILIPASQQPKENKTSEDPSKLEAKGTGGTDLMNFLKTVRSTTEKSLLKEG

Consider `CC[C@H](CC(=O)O)c1ccc(N(CC(C)(C)O)C2CCCCC2)c(Nc2ccc(Cl)cc2)c1` (single isomer, unassigned) [Example 242], for which the pIC50 is greater than 8.30.

Consider `CCC(CC(=O)O)c1ccc(N2CC[C@H](O)C2)c(Nc2ccc(Cl)cc2)c1` (single isomer, unassigned) [Example 266], for which the negative-log IC50 (pIC50) was less than 7.30.

Turning to `CCOc1ncc(Nc2cc([C@@H](CC)CC(=O)O)ccc2N(CC2CC2)CC(C)(C)O)cn1` (single isomer, unassigned) [Example 270], the negative-log IC50 (pIC50) was less than 7.30.

Consider `CC[C@H](CC(=O)O)c1ccc(N(CC2CC2)CC(C)(C)O)c(Nc2ccc(Cl)cc2)c1` (single isomer, unassigned) [Example 271], for which the pIC50 is greater than 8.30.

Regarding `CC[C@H](CC(=O)O)c1ccc(N(CC2CC2)CC(C)(C)O)c(Nc2ccc(C#N)cc2)c1` (single isomer, unassigned) [Example 272], the pIC50 was greater than 8.30.

Turning to `CC[C@H](CC(=O)O)c1ccc(N(CC2CC2)CC(C)(C)O)c(Nc2ccc(F)cc2)c1` (single isomer, unassigned) [Example 273], the pIC50 is greater than 7.30.

`CCOc1ncc(Nc2cc([C@H](CC)CC(=O)O)ccc2N(CC2CC2)CC(C)(C)O)cn1` (single isomer, unassigned) [Example 274]: the negative logarithm of the IC50 (pIC50) was greater than 7.30.

`CC[C@@H](CC(=O)O)c1ccc(N(CC)C2CCCCC2)c(Nc2ccc(Cl)cc2)c1` (single isomer, unassigned) [Example 279]: the pIC50 is greater than 8.30.

For `CCOc1ncc(Nc2cc([C@@H](CC)CC(=O)O)ccc2N(CC)C2CCCCC2)cn1` (single isomer, unassigned) [Example 281], the pIC50 is greater than 7.30.

On to `CCc1ccc(Nc2cc([C@@H](CC)CC(=O)O)ccc2N(CC)C2CCCCC2)cc1` (single isomer, unassigned) [Example 282], for which the pIC50 is greater than 8.30.

`CC[C@@H](CC(=O)O)c1ccc(N(CC)C2CCCCC2)c(Nc2ccc(C#N)cc2)c1` (single isomer, unassigned) [Example 283]: the pIC50 is greater than 8.30.

`CC[C@@H](CC(=O)O)c1ccc(N(CC)C2CCCCC2)c(Nc2ccc(OC(F)F)cc2)c1` (single isomer, unassigned) [Example 284]: the pIC50 is greater than 8.30.

With `CC[C@H](CC(=O)O)c1ccc(N(CC)C2CCCCC2)c(Nc2ccc(Cl)cc2)c1` (single isomer, unassigned) [Example 285], the negative-log IC50 (pIC50) was greater than 8.30.

`CCc1cnc(Nc2cc([C@H](CC)CC(=O)O)ccc2N(CC)C2CCCCC2)nc1` (single isomer, unassigned) [Example 286]: the pIC50 is less than 7.30.

On to `CCOc1ncc(Nc2cc([C@H](CC)CC(=O)O)ccc2N(CC)C2CCCCC2)cn1` (single isomer, unassigned) [Example 287], for which the negative logarithm of the IC50 (pIC50) is greater than 8.30.

With `CCc1ccc(Nc2cc([C@H](CC)CC(=O)O)ccc2N(CC)C2CCCCC2)cc1` (single isomer, unassigned) [Example 288], the pIC50 was greater than 7.30.

On to `CC[C@H](CC(=O)O)c1ccc(N(CC)C2CCCCC2)c(Nc2ccc(C#N)cc2)c1` (single isomer, unassigned) [Example 289], for which the pIC50 was greater than 8.30.

For `CC[C@H](CC(=O)O)c1ccc(N(CC)C2CCCCC2)c(Nc2ccc(OC(F)F)cc2)c1` (single isomer, unassigned) [Example 290], the pIC50 was greater than 8.30.

In the case of `CCC(CC(=O)O)c1ccc(N(CC(C)C)C2CCCCC2)c(Nc2ccc3c(c2)OC(F)(F)O3)c1` (single isomer, unassigned) [Example 299, 3-(4-(Cyclohexyl(isobutyl)amino)-3-((2,2-difluorobenzo[d][1,3]dioxol-5-yl)amino)phenyl)pentanoic acid], the negative-log IC50 (pIC50) is greater than 8.30.

Take `CCC(CC(=O)O)c1ccc(N(CC(C)C)C2CCCCC2)c(Nc2ccc3c(c2)OCCO3)c1` (single isomer, unassigned) [Example 301, 3-(4-(cyclohexyl(isobutyl)amino)-3-((2,3-dihydrobenzo[b][1,4]dioxin-6-yl)amino)phenyl) pentanoic acid]: the negative logarithm of the IC50 (pIC50) was greater than 7.30.

In the case of `CCc1cnc(Nc2cc(C(CC)CC(=O)O)ccc2N(CC(C)C)C2CCCCC2)nc1` (single isomer, unassigned) [Example 302, 3-(4-(cyclohexyl(isobutyl)amino)-3-((5-ethylpyrimidin-2-yl)amino)phenyl)pentanoic acid], the pIC50 was greater than 8.30.

Turning to `CCC(CC(=O)O)c1ccc(N(CC(C)C)C2CCCCC2)c(Nc2ccc(C)cc2)c1` (single isomer, unassigned) [Example 304, 3-(4-(cyclohexyl(isobutyl)amino)-3-(p-tolylamino)phenyl)pentanoic acid], the pIC50 was greater than 8.30.

`CCC(CC(=O)O)c1ccc(N(CC(C)C)C2CCCCC2)c(Nc2ccc3nc(C)sc3c2)c1` (single isomer, unassigned) [Example 305, 3-(4-(cyclohexyl(isobutyl)amino)-3-((2-methylbenzo [d]thiazol-6-yl)amino)phenyl)pentanoic acid]: the pIC50 is greater than 8.30.

For the compound `CCC(CC(=O)O)c1ccc(N(CC(C)C)C2CCCCC2)c(Nc2ccc(Cl)cc2F)c1` (single isomer, unassigned) [Example 307, 3-(3-((4-chloro-2-fluorophenyl)amino)-4-(cyclohexyl(isobutyl)amino)phenyl)pentanoic acid], the pIC50 was greater than 7.30.

On to `CCC(CC(=O)O)c1ccc(N(CC(C)C)C2CCCCC2)c(Nc2ccc(Cl)cc2)c1` (single isomer, unassigned) [Example 308, 3-(3-((4-chlorophenyl)amino)-4-(cyclohexyl (isobutyl)amino)phenyl) pentanoic acid], for which the pIC50 was greater than 8.30.

`CCc1ccc(Nc2cc(C(CC)CC(=O)O)ccc2N(CC(C)C)C2CCCCC2)cc1` (single isomer, unassigned) [Example 309, 3-(4-(cyclohexyl(isobutyl)amino)-3-((4-ethylphenyl)amino)phenyl)pentanoic acid]: the pIC50 was greater than 8.30.

`CCC(CC(=O)O)c1ccc(N(CC(C)C)C2CCCCC2)c(Nc2ccc(Cl)c(F)c2)c1` (single isomer, unassigned) [Example 310, 3-(3-((4-chloro-3-fluorophenyl)amino)-4-(cyclohexyl(isobutyl)amino)phenyl)pentanoic acid]: the negative logarithm of the IC50 (pIC50) is greater than 8.30.

With `CCC(CC(=O)O)c1ccc(N(CC(C)C)C2CCCCC2)c(Nc2ccc(F)cc2)c1` (single isomer, unassigned) [Example 311, 3-(4-(cyclohexyl(isobutyl)amino)-3-((4-fluorophenyl)amino)phenyl)pentanoic acid], the negative logarithm of the IC50 (pIC50) is greater than 8.30.

For `CCC(CC(=O)O)c1ccc(N(CC(C)C)C2CCCCC2)c(Nc2ccc(OC(F)(F)F)cc2)c1` (single isomer, unassigned) [Example 312, 3-(4-(cyclohexyl(isobutyl)amino)-3-((4-(trifluoromethoxy)phenyl)amino)phenyl)pentanoic acid], the pIC50 was greater than 8.30.

Turning to `CCOc1ccc(Nc2cc(C(CC)CC(=O)O)ccc2N(CC(C)C)C2CCCCC2)cc1` (single isomer, unassigned) [Example 313, 3-(4-(cyclohexyl(isobutyl)amino)-3-((4-ethoxyphenyl)amino)phenyl)pentanoic acid], the negative-log IC50 (pIC50) is greater than 8.30.

For the compound `CCC(CC(=O)O)c1ccc(N(CC(C)C)C2CCCCC2)c(Nc2ccc(C#N)cc2)c1` (single isomer, unassigned) [Example 314, 3-(3-((4-cyanophenyl)amino)-4-(cyclohexyl (isobutyl)amino)phenyl) pentanoic acid], the pIC50 is greater than 8.30.

As to `CCC(CC(=O)O)c1ccc(N(CC(C)C)C2CCCCC2)c(Nc2ccc3c(c2)OC(F)(F)O3)c1` (single isomer, unassigned) [Example 315, 3-(4-(Cyclohexyl(isobutyl)amino)-3-((2,2-difluorobenzo[d][1,3]dioxol-5-yl)amino)phenyl)pentanoic acid], the pIC50 is less than 7.30.

Regarding `CCC(CC(=O)O)c1ccc(N(CC)C2CCS(=O)(=O)CC2)c(Nc2ccc(C#N)cc2)c1` (single isomer, unassigned) [Example 337, 3-(3-((4-cyanophenyl)amino)-4-((1,1-dioxidotetrahydro-2H-thiopyran-4-yl)(ethyl)amino)phenyl) pentanoic acid], the pIC50 is greater than 8.30.

Regarding `CCN(c1ccc([C@@H](COC)CC(=O)O)cc1Nc1cnc(OC)nc1)C1CCOCC1` (single isomer, unassigned) [Example 350], the negative-log IC50 (pIC50) is greater than 7.30.

As for `CCOc1ncc(Nc2cc([C@@H](COC)CC(=O)O)ccc2N(CC)C2CCOCC2)cn1` (single isomer, unassigned) [Example 351], the pIC50 is greater than 7.30.

As to `CCN(c1ccc([C@@H](COC)CC(=O)O)cc1Nc1ccc(C)cc1)C1CCOCC1` (single isomer, unassigned) [Example 373], the pIC50 was greater than 8.30.

For `CCc1ccc(Nc2cc([C@@H](COC)CC(=O)O)ccc2N(CC)C2CCOCC2)cc1` (single isomer, unassigned) [Example 374], the pIC50 was greater than 8.30.

As to `CCN(c1ccc([C@@H](COC)CC(=O)O)cc1Nc1ccc(F)cc1)C1CCOCC1` (single isomer, unassigned) [Example 375], the negative-log IC50 (pIC50) is greater than 8.30.

Regarding `CCN(c1ccc([C@@H](COC)CC(=O)O)cc1Nc1ccc(Cl)cc1)C1CCOCC1` (single isomer, unassigned) [Example 376], the pIC50 is greater than 8.30.

Take `CCN(c1ccc([C@@H](COC)CC(=O)O)cc1Nc1ccc2nc(C)sc2c1)C1CCOCC1` (single isomer, unassigned) [Example 377]: the pIC50 is greater than 7.30.

With `CCN(c1ccc([C@@H](COC)CC(=O)O)cc1Nc1cnc(C)nc1)C1CCOCC1` (single isomer, unassigned) [Example 379], the negative logarithm of the IC50 (pIC50) is less than 7.30.

For `CCN(c1ccc([C@@H](COC)CC(=O)O)cc1NC(=O)Nc1ccc(OC)cc1F)C1CCOCC1` (single isomer, unassigned) [Example 424], the negative logarithm of the IC50 (pIC50) was less than 7.30.

Consider `CCN(c1ccc([C@@H](COC)CC(=O)O)cc1NC(=O)Nc1ccc(OC(F)F)cc1)C1CCOCC1` (single isomer, unassigned) [Example 425], for which the negative logarithm of the IC50 (pIC50) is less than 7.30.
